{
  "source": "patent US9340505B2",
  "about": "“Type III secretion inhibitors, analogs and uses thereof” (priority 2007, dated 2016)",
  "key": {"YopE-B1a secretion": {"system": "YopE-B1a secretion", "assay": "microbe, parasite or virus in culture", "type": "cell-based, Y. pestis", "conditions": "for IC50 / inhibition at 60 µM: Yersinia pestis"}, "[1]": {"system": "T3S mediated cytotoxic response of HeLa cells infected by Y. pestis"}, "HeLa cells": {"system": "HeLa cells", "assay": "Cytotoxicity of compounds, Lactate Dehydrogenase (LDH) assay", "conditions": "60 μM"}, "YopH secretion": {"system": "YopH secretion", "type": "cell-based, Y. pestis"}, "[2]": {"system": "YopE-B1a translocation to HeLa cells", "assay": "cells", "type": "cell-based, Y. pestis"}, "secretion of Yops": {"system": "secretion of Yops", "type": "cell-based, Y. pestis"}, "Y. pestis": {"system": "Y. pestis", "type": "cell-based"}, "Y. pestis JG401": {"system": "Y. pestis JG401", "type": "cell-based"}, "T3S": {"system": "T3S", "conditions": "read-out: IC50 as T3S inhibitor in Y. pseudotuberculosis; cited from earlier work"}, "bacterial T3S": {"system": "bacterial T3S", "conditions": "cited from earlier work"}, "[3]": {"conditions": "read-out: IC50 (μM) of YopE secretion, round 3 lead 1 analogs"}, "[4]": {"conditions": "read-out: IC50 of YopE secretion (Table 13)"}, "[5]": {"conditions": "read-out: Mean Inhibition (%) (3rd round compound 3 analogs)"}},
  "note": "“Also recorded” adds a separate entry of the source. Where two headings read alike, the source gives them in different places.",
  "data": [
    {"smiles": "Cc1ccc(CSc2nc(C(=O)O)ccc2C#N)cc1", "note": "[Compound 1, 2-Pyridinecarboxylic acid, 5-cyano-6-[[(4-methylphenyl)methyl]thio]-]", "values": [
      {"measurement": "IC50", "setting": "YopE-B1a secretion; [3]", "value": "< 15", "unit": "µM"},
      {"measurement": "IC50", "setting": "YopE-B1a secretion; [4]", "value": "> 60", "unit": "µM"}
    ]},
    {"smiles": "N#Cc1ccc(C(=O)O)nc1SCc1cccc([N+](=O)[O-])c1", "note": "[MC1_1-4, 5-cyano-6-(3-nitrobenzylthio) picolinic acid]", "values": [
      {"measurement": "IC50", "setting": "YopE-B1a secretion; [4]", "value": "> 60", "unit": "µM"}
    ]},
    {"smiles": "CC(=O)c1ccc(NC(=O)Nc2cccc(C3=NCCN3)c2)cc1.Cl", "note": "[Compound 4, 1-(4-acetylphenyl)-3-(3-(4,5-dihydro-1H-imidazol-2-yl)phenyl)urea hydrochloride]", "values": [
      {"measurement": "inhibition of T3S mediated cytotoxic response (morphological change)", "setting": "[1]", "value": "inhibited the cytotoxic response"}
    ]},
    {"smiles": "Nc1cc(Oc2ccc(O)c(N)c2)ccc1O", "note": "[Compound 2-4]", "values": [
      {"measurement": "cytotoxicity of analogs to HeLa cells (in words)", "setting": "HeLa cells", "value": "significant decrease in cytotoxicity"}
    ]},
    {"smiles": "N#Cc1cccc(NC(=O)Nc2cccc(C3=NCCN3)c2)c1", "note": "[MC3_1-3]", "values": [
      {"measurement": "concentration dependent T3S inhibition (in words)", "setting": "YopH secretion", "value": "concentration dependent inhibitory activities"}
    ]},
    {"smiles": "FC(F)(F)c1cc(Nc2nc3cc(C4=NCCCN4)ccc3o2)ccc1Cl", "note": "[MC3_3-2]", "values": [
      {"measurement": "inhibition at 60 µM", "setting": "YopE-B1a secretion; [5]", "value": 49, "unit": "%"}
    ]},
    {"smiles": "CCC(=O)O.CCC(=O)O.O=C(Nc1cccc(C2=NCCN2)c1)Nc1cccc(C2=NCCN2)c1", "note": "[Compound 3 dipropionate, propanoic acid, compd. with N,N′-bis[3-(4,5-dihydro-1H-imidazol-2-yl)phenyl]urea (2:1)]", "values": [
      {"measurement": "inhibition of YopE-B1a translocation (in words)", "setting": "[2]; 80 μM", "value": "completely inhibited"},
      {"measurement": "inhibition at 40 µM", "setting": "[2]; Yersinia pestis, HeLa, 40 μM", "value": 50, "unit": "%"}
    ]},
    {"smiles": "N#Cc1ccc(C(=O)O)nc1Sc1ccc(Cl)cc1", "note": "[MC1_2-3, 6-(4-chlorophenylthio)-5-cyanopicolinic acid]", "values": [
      {"measurement": "IC50", "setting": "YopE-B1a secretion; read-out: IC50 (μM) of YopE secretion, 2nd round compound 1 analogs", "value": "< 15", "unit": "µM"},
      {"measurement": "inhibition at 60 µM", "setting": "YopE-B1a secretion; 60 μM, read-out: Mean Inhibition (%) of YopE-B1a secretion (Table 14)", "value": 95.9, "unit": "%"},
      {"measurement": "inhibition at 60 µM", "setting": "YopE-B1a secretion; 60 μM, read-out: inhibition on YopE-B1a secretion", "value": "~95", "unit": "%"}
    ]},
    {"smiles": "Cl.N#Cc1cccc(NC(=O)Nc2cccc(C3=NCCN3)c2)c1", "note": "[Compound 3]", "values": [
      {"measurement": "inhibition of T3S mediated cytotoxic response (morphological change)", "setting": "[1]", "value": "inhibited the cytotoxic response"}
    ]},
    {"smiles": "FC(F)(F)c1cc(Nc2nc3ccc(C4=NCCN4)cc3o2)ccc1Cl", "note": "[MC3_3-3]", "values": [
      {"measurement": "inhibition at 60 µM", "setting": "YopE-B1a secretion; [5]", "value": 103, "unit": "%"}
    ]},
    {"smiles": "FC(F)(F)c1cc(Nc2nc3ccc(C4=NCCN4)cc3[nH]2)ccc1Cl", "note": "[MC3_3-4]", "values": [
      {"measurement": "inhibition at 60 µM", "setting": "YopE-B1a secretion; [5]", "value": 0, "unit": "%"}
    ]},
    {"smiles": "O=C(Nc1cccc(C2=NCCN2)c1)Nc1cccc(C(F)(F)F)c1", "note": "[MC3_1-9]", "values": [
      {"measurement": "concentration dependent T3S inhibition (in words)", "setting": "YopH secretion", "value": "concentration dependent inhibitory activities"}
    ]},
    {"smiles": "N#Cc1ccc(C(=O)O)nc1SCc1ccc(C(F)(F)F)cc1", "note": "[MC1_1-8]", "values": [
      {"measurement": "IC50", "setting": "YopE-B1a secretion; [4]", "value": 55, "unit": "µM"}
    ]},
    {"smiles": "N#Cc1ccc(C(=O)O)nc1SCc1ccc(Cl)cc1", "note": "[MC1_1-1, 6-(4-chlorobenzylthio)-5-cyanopicolinic acid]", "values": [
      {"measurement": "IC50", "setting": "YopE-B1a secretion; [4]", "value": 20, "unit": "µM"}
    ]},
    {"smiles": "CNC(=O)c1ccc(C#N)c(SCc2ccc(Cl)cc2)n1", "note": "[MC1_3-1]", "values": [
      {"measurement": "inhibitory activity on YopE-B1a secretion (in words)", "setting": "YopE-B1a secretion", "value": "showed inhibitory activity"},
      {"measurement": "IC50", "setting": "YopE-B1a secretion; [3]", "value": "< 15", "unit": "µM"}
    ]},
    {"smiles": "N#Cc1ccc(C(=O)O)nc1SCc1ccccc1", "note": "[MC1_1-2, 6-(benzylthio)-5-cyanopicolinic acid]", "values": [
      {"measurement": "IC50", "setting": "YopE-B1a secretion; [4]", "value": 60, "unit": "µM"}
    ]},
    {"smiles": "O=C(N/N=C/c1cc(Br)cc(Br)c1O)c1ccc([N+](=O)[O-])cc1", "note": "[INP0007]", "values": [
      {"measurement": "inhibition of secretion of Yops (in words)", "setting": "secretion of Yops", "value": "inhibited secretion of Yops"},
      {"measurement": "inhibition of Y. pestis growth", "setting": "Y. pestis", "value": "completely inhibited"},
      {"measurement": "promotion of Y. pestis growth at 37° C. in the absence of Ca2+", "setting": "Y. pestis JG401", "value": "did not promote the growth"},
      {"measurement": "IC50", "setting": "T3S", "value": 50, "unit": "µM"}
    ]},
    {"smiles": "O=C(Nc1cccc(Cl)c1)Nc1cccc(C2=NCCN2)c1", "note": "[MC3_1-16]", "values": [
      {"measurement": "concentration dependent T3S inhibition (in words)", "setting": "YopH secretion", "value": "concentration dependent inhibitory activities"}
    ]},
    {"smiles": "Cl.O=C(Nc1cccc(Cl)c1)Nc1cccc(C2=NCCN2)c1", "note": "[Compound 1, 1-(3-chlorophenyl)-3-(3-(4,5-dihydro-1H-imidazol-2-yl)phenyl) urea hydrochloride]", "values": [
      {"measurement": "inhibition of T3S mediated cytotoxic response (morphological change)", "setting": "[1]", "value": "inhibited the cytotoxic response"}
    ]},
    {"smiles": "N#Cc1ccc(C(=O)O)nc1SCc1ccccc1Cl", "note": "[MC1_1-5, 6-(2-chlorobenzylthio)-5-cyanopicolinic acid]", "values": [
      {"measurement": "IC50", "setting": "YopE-B1a secretion; [4]", "value": "≥ 60", "unit": "µM"}
    ]},
    {"smiles": "COC(=O)c1ccc(C#N)c(SCc2ccc(Cl)cc2)n1", "note": "[MC1_3-2]", "values": [
      {"measurement": "inhibitory activity on YopE-B1a secretion (in words)", "setting": "YopE-B1a secretion", "value": "showed inhibitory activity"},
      {"measurement": "IC50", "setting": "YopE-B1a secretion; [3]", "value": "20 ± 5", "unit": "µM"}
    ]},
    {"smiles": "Cc1ccc(-c2nn(-c3ccccc3)cc2C2CC(c3ccccc3)=NN2C(=O)CCC(=O)O)cc1", "note": "(centres unmarked) [Compound 4-6]", "values": [
      {"measurement": "activity against YopH secretion (in words)", "setting": "YopH secretion", "value": "showed activity"}
    ]},
    {"smiles": "N#Cc1ccc(C(N)=O)nc1SCc1ccc(Cl)cc1", "note": "[MC1_3-3]", "values": [
      {"measurement": "inhibitory activity on YopE-B1a secretion (in words)", "setting": "YopE-B1a secretion", "value": "showed inhibitory activity"},
      {"measurement": "IC50", "setting": "YopE-B1a secretion; [3]", "value": "50 ± 5", "unit": "µM"}
    ]},
    {"smiles": "N#Cc1ccc(C(=O)O)nc1SCc1ccc(OC(F)(F)F)cc1", "note": "[MC1_1-9, 5-cyano-6-(4-(trifluoromethoxy)benzylthio) picolinic acid]", "values": [
      {"measurement": "IC50", "setting": "YopE-B1a secretion; [4]", "value": 30, "unit": "µM"}
    ]},
    {"smiles": "COc1ccc(CSc2nc(C(=O)O)ccc2C#N)cc1", "note": "[MC1_1-3, 5-cyano-6-(4-methoxybenzylthio) picolinic acid]", "values": [
      {"measurement": "IC50", "setting": "YopE-B1a secretion; [4]", "value": "> 60", "unit": "µM"}
    ]},
    {"smiles": "Cc1ccc(-c2nn(-c3ccccc3)cc2C2CC(c3cccs3)=NN2C(=O)CCC(=O)O)cc1", "note": "(centres unmarked) [Compound 4-5]", "values": [
      {"measurement": "activity against YopH secretion (in words)", "setting": "YopH secretion", "value": "showed activity"}
    ]},
    {"smiles": "Oc1ccc(Oc2ccc(O)cc2)cc1", "note": "[Compound 2-3]", "values": [
      {"measurement": "activity against YopH secretion (in words)", "setting": "YopH secretion", "value": "showed activity"},
      {"measurement": "concentration dependent T3S inhibition (in words)", "setting": "YopH secretion", "value": "retained inhibitory activity"},
      {"measurement": "cytotoxicity of analogs to HeLa cells (in words)", "setting": "HeLa cells", "value": "significant decrease in cytotoxicity; also recorded: overcame the cytotoxicity"}
    ]},
    {"smiles": "O=C(Nc1cccc(Br)c1)Nc1cccc(C2=NCCN2)c1", "note": "[MC3_1-10]", "values": [
      {"measurement": "concentration dependent T3S inhibition (in words)", "setting": "YopH secretion", "value": "concentration dependent inhibitory activities"}
    ]},
    {"smiles": "O=C(Nc1cccc(C2=NCCN2)c1)Nc1cccc([N+](=O)[O-])c1", "note": "[MC3_1-2]", "values": [
      {"measurement": "activity against YopH secretion (in words)", "setting": "YopH secretion", "value": "showed inhibition"},
      {"measurement": "concentration dependent T3S inhibition (in words)", "setting": "YopH secretion", "value": "concentration dependent inhibitory activities"}
    ]},
    {"smiles": "FC(F)(F)c1cc(Nc2nc3cc(C4=NCCN4)ccc3o2)ccc1Cl", "note": "[MC3_3-1]", "values": [
      {"measurement": "inhibition at 60 µM", "setting": "YopE-B1a secretion; [5]", "value": 69.8, "unit": "%"}
    ]},
    {"smiles": "CCCCCCCCC[C@H](CCCCCCCC(C)=O)O[C@@H]1O[C@H](CO)[C@@H](O)[C@H](O)[C@H]1O[C@@H]1O[C@H](CO[C@@H]2O[C@H](C)[C@H](O)[C@H](O)[C@@H]2O)[C@@H](OC(C)=O)[C@H](OC(=O)CCC)[C@H]1O[C@@H]1O[C@@H](C)[C@H](O)[C@@H](O)[C@@H]1O", "note": "[Caminoside A]", "values": [
      {"measurement": "activity in screen for bacterial T3S inhibitors", "setting": "bacterial T3S", "value": "potent activity"}
    ]}
  ]
}
